Measurements as given in article PMC7498065, “Isolation of antigen-specific, disulphide-rich knob domain peptides from bovine antibodies” (PLoS Biology, 2020).
Entries after “also recorded” stand apart in the source; their conditions may differ. Where no end group is shown, it is not given here.

Molecular target: Complement component C5 (Homo sapiens, UniProt P01031)
Assay: Biacore SPR single-cycle kinetics of isolated knob domain peptides binding to C5
Protocol: For knob domain peptides, flow cells were activated using a standard immobilisation protocol: EDC/NHS was mixed at 1:1 ratio (flow rate, 10 μL/min; contact time, 30 s). C5, at 1 μg/mL in pH 4.5 sodium-acetate buffer, was immobilized on flow cell 2 only (flow rate, 10 μL/min; contact time, 420 s). Finally, ethanolamine was applied to both flow cells (flow rate, 10 μL/min; contact time, 420 s). A final immobilization level of approximately 1,500–2,000 response units was obtained for peptide samples. For the PGT121-K149 fusion protein and K149 knob domain, the same immobilisation protocols were used but with a 750 ng/mL solution of C5, instead of 1 μg/mL.
One-micromolar stock solutions of the analytes (PGT121 knob domain fusion proteins and free knob domain peptides) were prepared in HBS-EP buffer. A series of six 3-fold dilutions of each stock solution was prepared in the same buffer. The result was 7 solutions for each analyte, at concentrations ranging from 1 μM down to 1.37 nM. A high flow rate of 40 μL/min was used, with a contact time of 230 s and a dissociation time of 1,800 s for knob domain peptides and 10,000 s for PGT121 knob domain fusion proteins. For the PGT121-K149 fusion protein and K149 knob domain, the flow rate was further increased to 100 μL/min. Binding to the reference surface was subtracted, and the data were fitted to a single-site binding model using Biacore evaluation software. Data were inspected for evidence of mass transport limitation using the flow-rate–independent component of the mass transfer constant (tc).

Complement component C5, sequence (P01031 19-673 limits assumed): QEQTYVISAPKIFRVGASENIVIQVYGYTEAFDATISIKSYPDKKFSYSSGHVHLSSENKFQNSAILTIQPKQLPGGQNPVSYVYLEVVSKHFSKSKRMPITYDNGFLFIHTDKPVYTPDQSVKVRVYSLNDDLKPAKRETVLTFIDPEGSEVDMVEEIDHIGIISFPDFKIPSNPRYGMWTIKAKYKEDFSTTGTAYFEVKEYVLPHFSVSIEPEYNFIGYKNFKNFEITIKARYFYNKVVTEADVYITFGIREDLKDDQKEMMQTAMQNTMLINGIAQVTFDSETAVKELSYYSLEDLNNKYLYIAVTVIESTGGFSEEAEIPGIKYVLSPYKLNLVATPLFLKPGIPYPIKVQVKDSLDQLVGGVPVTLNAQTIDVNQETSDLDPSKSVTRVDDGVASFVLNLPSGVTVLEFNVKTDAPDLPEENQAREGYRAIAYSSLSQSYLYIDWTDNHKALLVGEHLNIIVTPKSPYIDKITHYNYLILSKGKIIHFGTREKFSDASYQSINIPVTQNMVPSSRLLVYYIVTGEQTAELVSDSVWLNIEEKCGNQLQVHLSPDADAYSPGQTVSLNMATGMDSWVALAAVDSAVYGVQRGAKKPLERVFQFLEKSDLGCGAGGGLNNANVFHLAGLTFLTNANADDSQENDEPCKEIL
Complement component C5, sequence (P01031 678-1676 limits assumed): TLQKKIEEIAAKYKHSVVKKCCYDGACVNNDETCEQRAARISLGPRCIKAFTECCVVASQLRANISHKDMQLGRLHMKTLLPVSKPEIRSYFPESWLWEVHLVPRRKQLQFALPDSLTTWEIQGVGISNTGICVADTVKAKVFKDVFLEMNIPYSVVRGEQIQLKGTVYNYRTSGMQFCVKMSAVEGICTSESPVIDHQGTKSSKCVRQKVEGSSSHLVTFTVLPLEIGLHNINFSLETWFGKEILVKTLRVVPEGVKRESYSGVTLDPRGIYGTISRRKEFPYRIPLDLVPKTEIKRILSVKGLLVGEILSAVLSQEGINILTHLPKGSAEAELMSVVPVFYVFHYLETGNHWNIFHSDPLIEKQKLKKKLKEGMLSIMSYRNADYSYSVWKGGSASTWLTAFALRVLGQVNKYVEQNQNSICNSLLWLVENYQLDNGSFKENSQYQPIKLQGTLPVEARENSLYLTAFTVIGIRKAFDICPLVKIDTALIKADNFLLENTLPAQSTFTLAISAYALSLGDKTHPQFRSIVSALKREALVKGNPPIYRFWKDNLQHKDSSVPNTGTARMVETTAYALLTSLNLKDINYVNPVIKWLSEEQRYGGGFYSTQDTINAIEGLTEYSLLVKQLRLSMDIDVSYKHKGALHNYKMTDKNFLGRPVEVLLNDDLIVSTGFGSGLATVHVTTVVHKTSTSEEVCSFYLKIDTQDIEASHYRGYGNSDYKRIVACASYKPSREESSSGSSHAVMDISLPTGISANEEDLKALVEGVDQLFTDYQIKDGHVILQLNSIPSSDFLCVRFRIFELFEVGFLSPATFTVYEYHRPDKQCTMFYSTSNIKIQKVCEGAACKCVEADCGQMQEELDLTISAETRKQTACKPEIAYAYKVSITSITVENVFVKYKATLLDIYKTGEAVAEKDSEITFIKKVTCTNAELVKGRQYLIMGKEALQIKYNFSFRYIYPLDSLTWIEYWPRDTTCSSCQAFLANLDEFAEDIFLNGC

**Q.** How did the “mean KD” value (SPR single-cycle kinetics, 1:1 model, mean of 3 experiments (Fig 6)) turn out when “GKSCREGYIDGGGCCLPGSCRGCACSYYDWLKCPRDCRGTSEEENLYFQ (also: bicyclic or more (positions not given here)) [K60, isolated bovine knob domain peptide, TEV-excised from PGT121 Fab]” was run?
**A.** not to bind; also recorded: Non-binding

**Q.** What about the “Mean Stoichiometric ratio at 1 µM” value (SPR, analyte 1 µM, mean of n=3 occasions) of the same sequence?
**A.** <0.1

**Q.** And the “Stoichiometric ratio at 1 µM” value (occasion n=1)?
**A.** <0.1

**Q.** And the “Stoichiometric ratio at 1 µM” value (occasion n=2)?
**A.** <0.1

**Q.** And the “Stoichiometric ratio at 1 µM” value (occasion n=3)?
**A.** <0.1
